{
  "source": "patent US20030170656A1",
  "about": "“Method of screening for factors that modulate gene expression” (Chiron Corporation, priority 1995, published 2003)",
  "molecules": {"B1": {"name": "16.1: 61 amino acid polypeptide of SEQ ID NO. 2, deconvoluted from pool 16.1, capable of inducing c-fos transcription in NIH3T3 cells (protein)", "chain": "MTLMVFKCSDNLLLIVVYAKVFPSTSCIHYQIYTCKFEVLLFSQHELKIFCNSARQGSSCL"}},
  "format_in_all_cases": "cell-based",
  "key": {"[1]": {"tested_on": "serum responsive element (SRE)-luciferase construct in FTL cells", "assay": "SRE-luciferase reporter assay (luciferase assay) in NIH3T3 derived FTL cells", "details": "4000 cells", "procedure": "(§1) A construct comprising in operable linkage a luciferase reporter gene and the serum responsive element (SRE) was stably transfected into NIH3T3 derived FTL cells which were selected as the responsive cells. Plasmid DNAs from small library pools of 100 to 500 independent colonies per pool were constructed and in vitro transcribed into cRNAs. Each pool of cRNAs were injected into Xenopus laevis oocytes and cultured at 18° C. overnight. The next day, each oocyte was then cocultured with FTL cells transfected with the SRE-luciferase construct and incubated at 37° C. for three hours in a microwell. The oocytes were removed and induction of luciferase gene was assayed by luciferase assay, and also by bDNA assay against luciferase mRNA. The luciferase assay was sensitive to 4000 cells with a minimum concentration of 1 nM of PDGFBB (PDGF β chain dimer). The bDNA assay detected a lower concentration of library, with the ability to detect from 4000 cells less than 0.01 nM of PDGFBB."}, "c-fos mRNA in FTL cells": {"tested_on": "c-fos mRNA in FTL cells", "assay": "bDNA assay against c-fos mRNA in NIH3T3 derived FTL cells", "procedure": "To assay for a growth factor that stimulates the expression of the c-fos gene, NIH3T3 derived FTL cells were selected as the responsive cells. A library for screening is prepared from human tissue as described above for expression in Xenopus oocytes. Plasmid DNAs from small library pools of 100 to 500 independent colonies per pool were constructed and in vitro transcribed into cRNAs. Each pool of cRNAs were injected into Xenopus laevis oocytes and cultured at 18° C. overnight. The next day, each oocyte was then cocultured on a bed of NIH3T3 derived FTL cells in a microwell and incubated at 37° C. for three hours.\nThe oocytes were removed and induction of c-fos messenger was measured by bDNA assay against c-fos mRNA. […] In the present experiment, a bDNA assay detected a lower concentration of library, with the ability to detect from 4000 FTL cells less than 0.01 nM of PDGFBB (PDGF β chain dimer). As previously described, administration of PDGFBB to cells, including FTL cells, induces the transcription of the c-fos gene."}, "[2]": {"tested_on": "c-fos mRNA in NIH3T3 cells", "assay": "c-fos induction by bDNA assay in NIH3T3 cells (small molecule pool screen with PDGFBB)", "details": "bDNA against c-fos mRNA, read-out: concentration giving 50% of maximal c-fos induction", "procedure": "Small molecule library pools are prepared as described above, and 48 such pools were marked and divided for screening. An aliquot of each pool (2 μM final concentration) was placed in a micro-well on a bed of NIH3T3 cells in a microwell and incubated at 37° C. for 45 minutes with 1 ηM PDGFBB.\nEach well was assayed by induction of c-fos messenger by bDNA assay against c-fos mRNA. In a previous study (described in example 8), a bDNA assay detected induction of c-fos mRNA by less than 0.01 ηM of PDGFBB (PDGF β chain dimer). 1 ηM of PDGFBB gives 50% of maximal c-fos induction. As previously described, administration of PDGFBB to cells, including FTL cells, induces the transcription of the c-fos gene.\nIn this study, induction or reduction of the c-fos gene was measured by bDNA. Where an agonist was present in the small molecule library pool, c-fos induction was expected to occur at about the same level or greater as induction by administration of PDGFBB. Where an antagonist was present in the small molecule library pool, c-fos transcription was expected to be reduced perhaps to non-detectable levels. […]"}, "[3]": {"tested_on": "luciferase mRNA (SRE-luciferase construct) in FTL cells", "assay": "bDNA assay against luciferase mRNA in SRE-luciferase FTL cells", "details": "4000 cells", "procedure": "as §1"}, "[4]": {"tested_on": "c-fos transcription in NIH3T3 cells", "assay": "Xenopus oocyte/NIH3T3 coculture, c-fos induction by bDNA assay", "details": "compared to non-stimulated NIH3T3 cells", "source_text": "Manual defolliculated Xenopus oocytes are excellent at expressing in vitro transcribed cRNA and its background c-fos induction activity is almost none. Taking advantage of the size of Xenopus oocytes, a coculture system using Xenopus oocytes and NIH3T3 cells was developed in microplates which allowed the detection of both diffusible and membrane-attached nondiffusible growth factors. However, it was shown that damaged oocytes produce significant c-fos induction in NIH3T3 cells. A repeatable condition was established, however, which was sensitive enough to detect PDGF c-sis activity secreted from an oocyte injected with 0.08 ng of PDGF c-sis cRNA. This sensitivity was shown allowing for detection of PDGF c-sis activity in a pool of 600 clones. Screening was then conducted of 350 pools of a mouse brain cDNA library with a diversity of an average of 150 clones per pool, and 100 pools of a Xenopus embryo library with a diversity of 80 clones per pool. Considering the biological variation between oocytes, each pool of cRNA was injected into three oocytes and subsequently yielded triplicate results.\nAmong these 450 pools, 61 pools were initially found positive. After multiple repeated experiments, 14 remained moderately positive. […] The nucleotide and translated protein sequence for clone 16.1 was determined, and is represented in SEQ ID NO. […]"}},
  "data": [
    {"molecule": "PDGFBB: PDGF β chain dimer", "values": [
      {"measurement": "minimum concentration detected by luciferase assay", "setting": "[1]", "value": 1, "unit": "nM"},
      {"measurement": "concentration detectable by bDNA assay against c-fos mRNA", "setting": "c-fos mRNA in FTL cells; 4000 FTL cells", "value": "less than 0.01 nM"},
      {"measurement": "concentration inducing c-fos mRNA detected by bDNA assay", "setting": "c-fos mRNA in FTL cells; as restated in Example 9 from Example 8", "value": "less than 0.01 ηM"},
      {"measurement": "EC50", "setting": "[2]", "value": 1, "unit": "nM"},
      {"measurement": "concentration detectable by bDNA assay against luciferase mRNA", "setting": "[3]", "value": "less than 0.01 nM"}
    ]},
    {"molecule": "B1", "values": [
      {"measurement": "induction of c-fos transcription", "setting": "[4]", "value": 5, "unit": "fold"},
      {"measurement": "induction of c-fos transcription", "setting": "[4]; listed as SEQ ID NO. 2", "value": "about 5 fold"}
    ]}
  ]
}
